Data set [1] can be described thus: Hydrophobicity (log kw), reverse-phase HPLC coupled to ICP-MS. Particulars: HPLC C8 column, actual or projected mobile phase 100% water; determinants from independent experiments. Format: physicochemical.
Data set [2] concerns female Wistar rats.
Description: Neurotoxicity was detected by measuring sensory nerve conduction velocity (SNCV) in Wistar rats treated twice per week at the maximum tolerated dose. […] Animals and treatment Age-matched inbred female Wistar rats were used. Animals were allowed to acclimatize for 2 weeks before the start of the experiment. The animals were 10 weeks old and weighed 210- 240 g at the start of experiment. Platinum compounds (except JM216) were dissolved in sterile 0.9% (w/v) NaCl (Baxter Healthcare, New Zealand) by vortex mixing and sonication at an injection volume of 10 ml kg-1 . The platinum compounds (except JM216) were given by intraperitoneal injection on a twice per week dosing schedule at intervals of 3-4 days and the treatment was repeated weekly for a total of 8 weeks. […] Animals were weighed twice a week and checked for signs of toxicity daily. Animals showing signs of distress were immediately and painlessly killed. Animals had continuous access to food and water. […] Hypnorm (fluanisone 10 mg ml-1 , fentanyl citrate 0.3 mg ml-1 , Jansen Pharmaceuticals, Sydney, Australia) diluted 1:1 with sterile water was given by intramuscular injection to provide light anaesthesia. Responses were evoked by stimu- lating the sciatic nerve at the sciatic notch and the tibial nerve at the ankle of the left hind limb using percutaneous needle elec- trodes.
The next data set relates to patients. The conditions noted are these: cited from earlier work.
Data set [3] can be described thus: Hydrophobicity (log P), octanol-saline shake-flask method. The conditions noted are these: n-octanol / 0.9% NaCl shake-flask, platinum by ICP-MS, mean (n = 5).
Data set [4] relates to plasma proteins. Further details: method as in van der Vijgh and Klein, 1986. The conditions noted are these: ref van der Vijgh and Klein, 1986; cited from earlier work.
Data set [5] has as its system plasma proteins.
Data set [6] relates to female Wistar rats. Particulars: cited from earlier work.
Setting [7] is: female Wistar rats, twice per week dosing schedule at the MTD, intraperitoneal.
Setting [8] is: rat plasma, 37C, initial half-life by one-phase exponential decay.
Setting [9] is: female Wistar rats, twice per week dosing schedule at the MTD, same protocol (JM216 by oral gavage), previous results ref McKeage et al, 1994, Screnci et al, 1997.

“And” between values parts separate entries of the source, which are not always exact repeats. Identical values can stand only once. Like-named read-outs stand apart in the source and are kept apart here.

On to `N[C@@H]1CCCC[C@H]1N.[Cl][Pt+2]([Cl])([Cl])[Cl]` (racemic) [Ormaplatin, rac-(DACH)PtCl4], for which, in data set [1], the Log kw was 0.40 and 0.41. Further, the “Neurotoxic potency (cumulative dose causing altered SNCV)” value in the data set on female Wistar rats [2] (female Wistar rats, repeated treatment twice per week at the MTD, intraperitoneal) came to 26.0. For the same compound, in the data set on female Wistar rats [2] (setting [7]), the “Time to development of altered SNCV” value was 6.0 weeks. In the data set on patients (ref Schilder et al, 1994, O'Rourke et al, 1998), the “Incidence of neurotoxicity in patients % (95% CI)” value (from here on “Incidence … (95% CI)”) is recorded as 87 (47-100) %.

`N.N.O=C([O-])C1(C(=O)[O-])CCC1.[Pt+2]` [Carboplatin] registered a Log kw in data set [1] of 0.20. The “Log P” value in data set [3] is reported as -2.3; in data set [3] (listed as carboplatin) it was -2.30. Further, the “Time to development of altered SNCV” value in the data set on female Wistar rats [2] (setting [7]) came out at 8.0 weeks. Also, the “t (h), half-life of binding to plasma proteins in vitro” value (shortened to “t (h), half-life of binding”) in the data set with plasma proteins [4] was 48.6 h. In addition, in the data set with patients (ref Canetta et al, 1985), the “Incidence … (95% CI)” value is listed as 5.8 (3.8-8.5) %.

With `N.N.[Cl][Pt][Cl]` [Cisplatin], the “Time to development of altered SNCV” value in the data set with female Wistar rats [2] (rat, in vivo, ip) was determined as 7.0 weeks.

On to `CC(=O)[O][Pt]([NH2])([Cl])([Cl])([NH]C1CCCCC1)[O]C(C)=O` [JM216, bis-acetato-ammine-dichloro-cyclohexylamine-platinum(IV)], for which the “t (h), half-life of binding” value in the data set with plasma proteins [5] (setting [8]) is given as 65 h. For the same compound, the Log kw in data set [1] is 2.27 and 2.40. In addition, the “Log P” value in data set [3] is -0.16. In the data set on female Wistar rats [6] (setting [9]), the “Time to development of altered SNCV” value was more than 20.5 weeks. The “Incidence … (95% CI)” value with patients (ref Judson et al, 1997) is recorded as 5.6 (0-27) %.

As for `O=C1[O][Pt-2]2([NH2+]C3CCCC[C@H]3[NH2+]2)[O]C1=O` (stereo partly drawn) [Oxaliplatin, R,R-(DACH)Pt(oxalato)], the Log kw in data set [1] is 0.44 and 0.45. For the same compound, in the data set on female Wistar rats [6] (setting [9]), the “Time to development of altered SNCV” value is reported as 3.0 weeks.

With `NC1CCCCC1N.[Cl-].[Cl-].[Cl-].[Cl-].[Pt+4]` (stereo not drawn) [R,R-(DACH)PtCl4], the “t (h), half-life of binding” value in the data set with plasma proteins [5] (setting [8]) is reported as 0.97 h. In data set [1], the Log kw was 0.40 and 0.42. In addition, the “Time to development of altered SNCV” value in the data set on female Wistar rats [6] (rat, in vivo, po) was 4.0 weeks.

`NC1CCCCC1N.O=C([O-])C(=O)[O-].[Pt+2]` (stereo not drawn) [S,S-(DACH)Pt oxalato]: the “t (h), half-life of binding” value with plasma proteins [5] (rat, plasma) is listed as 1.21 h. Moreover, the Log kw in data set [1] is 0.44 and 0.45. Moreover, in the data set with female Wistar rats [6] (rat, in vivo, po), the “Time to development of altered SNCV” value is recorded as 7.0 weeks.

In the case of `NC1CCCCC1N.[Cl-].[Cl-].[Cl-].[Cl-].[Pt+4]` (stereo not drawn) [S,S-(DACH)PtCl4], the “t (h), half-life of binding” value in the data set on plasma proteins [5] (setting [8]) is given as 0.78 h. Also, in data set [1], the Log kw came to 0.41. Besides, the “Time to development of altered SNCV” value with female Wistar rats [6] (rat, in vivo, po) is 7.0 weeks.

Broadly, the Log P is a log measure of how a compound divides between an organic and an aqueous phase. Lower therefore signals lower lipophilicity.

The values are drawn from PMC2374394, “Relationships between hydrophobicity, reactivity, accumulation and peripheral nerve toxicity of a series of platinum drugs” (British Journal of Cancer, 2000).
